Data reported in patent publication US8512964B2, “Targets for treatment of hypercholesterolemia” (The Regents of the University of California, priority 2008, dated 2013).
Residues, ends and D or L forms follow the SMILES beside them. *: point of attachment. Cbz = O=C(OCc1ccccc1)*

Columns and labels:
HepG2 cells = assay: BODIPY-LDL binding and uptake assay in HepG2 cells; type: cell-based; conditions: 1 μM ligand, FIG. 1A
Protocol: HepG2 cells were plated at density of 40,000 cells/well. On the following day the cells were pre-treated for 8 hrs with DMSO, 1 μM GW3965, or 1 μM T0901317 in DMEM supplemented with 10% FBS. MEFs (DKO-mLxra) were plated similarly and infected on the following day with the indicated adenovirus (MOI 300) for 18 hrs. Subsequently, cells were washed twice with PBS and incubated for an additional 16 hrs in sterol deficient medium to induce expression of the LDLR. In experiments with HepG2 cells the sterol deficient medium further contained the LXR synthetic ligands indicated above. Uptake was initiated by incubating cells in 200 μl of serum deficient medium containing 5 μg/mL of BODIPY-LDL. For measuring binding of BODIPY-LDL to cells, plates were placed on ice prior to processing. Uptake of BODIPY-LDL was measured after a 30 minute incubation period at 37° C. At that point cells were washed 2× with PBS containing 0.2% BSA and lysed in 100 μl RIPA buffer supplemented with protease inhibitors. Lysates were collected and cleared by centrifugation and 30 μl of cleared lysate was transferred into a 384 well plate and measured on a Typhoon apparatus (Amersham) with filters set for BODIPY. The protein concentration of the cleared lysates was determined and results are presented as relative fluorescence normalized for protein content.

LDLR [1] = assay: Immunoblot of LDLR protein in immortalized Lxrαβ(−/−) MEFs stably expressing LXRα or vector control; type: cell-based, mouse; conditions: Lxrαβ(−/−) MEFs with LXRα or vector control, sterol depletion medium, FIG. 1E
Protocol: The cell lines HEK293T, HepG2, and SV589 were obtained from ATCC. HEK293T were cultured in Optimem containing 2% FBS. HepG2 and SV589 were cultured in DMEM supplemented with 10% FBS. immortalized Lxrαβ^(−/−) mouse embryonic fibroblasts (MEFs) were obtained by immortalizing E13.5 MEFs with a SV40 Large-T antigen retrovirus. To reconstitute mLxrα we transfected Phenix cells with pBabehygro or pBabehygro-mLxra. The resulting supernatant containing the corresponding retroviral particles was used to infect immortalized MEFs. Cells were selected in 800 μg/mL Hygromycin and surviving cells were used. HepG2-LDLR-GFP cells were generated by transfecting HepG2 cells with pEGFP-N1-LDLR and selecting cells with G418 (800 μg/mL).
Primary hepatocytes were isolated and maintained as previously reported (Pei et al. (2006) Nat Med 12: 1048). HEK293T cells were transfected using lipofectamine2000 (invitrogen). […] Under these conditions more than 90% of the cells were transduced as assessed by GFP immunofluorescence. […]
(§1) Total cell or tissue lysates were prepared in RIPA buffer (150 mM NaCl, 1% NP-40, 0.1% Sodium Deoxycholate, 0.1% SDS, 100 mM Tris-HCl, pH 7.4) supplemented with protease inhibitors (Roche Molecular Biochemicals). […] Protein concentration of the cleared lysates was determined using the Bradford assay (Biorad) with BSA as reference. […]

Mylip = Mylip expression in vivo after gavage of mice (realtime PCR); parameters: species or system mouse; conditions: mice gavaged 20 mg/kg twice daily for three days, FIG. 2C
Protocol: Total RNA was isolated from cells and mouse tissues using Trizol (Invitrogen). One microgram of total RNA was reverse transcribed with random hexamers using iScript reverse transcription reagents kit (Biorad). Sybergreen (Diagenode) real-time quantitative PCR assays were performed using an Applied Biosystems 7900HT sequence detector.

Mylip LXRE = assay: Mylip promoter (LXRE) reporter assay in HEK293 cells transfected with LXR and RXR; type: cell-based, mouse; conditions: activation by LXRa and GW3965, functional LXRE, FIG. 6D
Protocol: A 10 Kb promotor region upstream of the mMylip transcription initiation site was analyzed for the presence of LXR binding elements. A consensus DR4 site was identified 2454 upstream of the transcription initiation site. Olignoucleotides encompassing this element were designed, annealed and tested for binding to LXR/RXR heterodimers in a standard EMSA assay. A 2.5 kB promotor fragment upstream of the transcription initiation site containing the identified LXRE was amplified by PCR from BAC clone RP23-17N24 using mMylip-prom-FWD […] (SEQ ID NO:20) or mMylip-prom-ΔFWD […] (SEQ ID NO:21) with the common antisense primer mMylip-prom-REV […] (SEQ ID NO:22). Amplified fragments were cloned as SacI/XhoI fragments into pGL3 basic (Promega). Promotor analysis was done as previously described (Joseph et al. (2002) J Biol Chem 277: 11019).

LDLR [2] = assay: LDLR ubiquitination in HEK293 cells co-transfected with LDLR, Mylip and HA-Ubiquitin; type: cell-based; conditions: 25 μM for 6 h, FIG. 3G
Protocol: Primary hepatocytes were isolated and maintained as previously reported (Pei et al. (2006) Nat Med 12: 1048). HEK293T cells were transfected using lipofectamine2000 (invitrogen). Typically, 0.8×10^6 cells were seeded in a 60 mm well and transfected the following day with 2 μg DNA. In experiments testing the ability of Mylip to degrade other potential protein targets a ratio of 3:1 (Mylip:target) was used. To infect MEFs and SV589 with adenovirus cells were seeded (0.2×10^6 cells/60 mm well) and infected the following day at an MOI of 300. HepG2 cells were infected at an MOI of 80. Primary hepatocytes were infected 4 hrs after plating at an MOI of 20. Infections were allowed to proceed for 18 hrs after which culture medium was replaced. Under these conditions more than 90% of the cells were transduced as assessed by GFP immunofluorescence. Where indicated, cells were subsequently sterol starved by incubating cells in DMEM supplemented with 10% LPDS, 5 μM Simvastatin, and 100 μM Mevalonic acid for an additional 18 hrs (sterol deficient medium).
as §1

For `O=C(O)Cc1cccc(OCCCN(Cc2cccc(C(F)(F)F)c2Cl)CC(c2ccccc2)c2ccccc2)c1` [GW3965], the “binding and uptake of bodipy labeled-LDL” value (HepG2 cells) was “decreased”, the LDLR protein (LDLR [1]) was “decreased LDLR only in cells expressing LXRα” and the “Mylip expression in vivo” value (Mylip) was “induced”. For the same molecule, the “increase in reporter activity” value (Mylip LXRE) was about 4 fold.
With `O=S(=O)(c1ccccc1)N(CC(F)(F)F)c1ccc(C(O)(C(F)(F)F)C(F)(F)F)cc1` [T0901317] the “binding and uptake of bodipy labeled-LDL” value (HepG2 cells) was “decreased”.
With `CC(C)CC[C@@H](O)[C@@H](C)[C@H]1CC[C@H]2[C@@H]3CC=C4C[C@@H](O)CC[C@]4(C)[C@H]3CC[C@]12C` [22(R)-hydroxycholesterol] the LDLR protein (LDLR [1]) was “decreased LDLR protein in the absence or presence of LXRs”.
`CC(C)C[C@@H](C=O)NC(=O)[C@H](CC(C)C)NC(=O)[C@H](CC(C)C)NC(=O)OCc1ccccc1` [MG132] (Cbz-Leu-Leu-Leu-aldehyde) was tested, and the Mylip expression (LDLR [2]) was “greatly stabilizing” and the “Mylip-dependent level of LDLR ubiquitination” value (LDLR [2]) was “did not increase”.
